Legend:
Type in all cases: in vivo
[1] = system: barnyardgrass (Echinochloa crus-galli); assay: Test G Pre-Emergence Protocol; conditions: Echinochloa crus-galli, pre-emergence, 312 h, evaluated after 13 days; for pest or weed control at 15.625 g/ha: 15.625 g ai/ha; for pest or weed control at 15.625 g/ha / pest or weed control at 250 g/ha: read-out: Barnyardgrass damage rating (100=total damage to plant; 0=no damage to plant); for pest or weed control at 62.5 g/ha: 62.5 g ai/ha, 100=total damage to plant, 0=no damage to plant, read-out: Barnyardgrass damage rating; for pest or weed control at 250 g/ha: 250 g ai/ha
How it was run: (§1)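 Glasshouse pre-emergence test: soil-sown seeds, sprayed after 1 d at 15.625, 62.5 or 250 g/ha. Conditions 24/16° C day/night, 14 h light, 65% humidity, watering twice daily. Rating 13 d post-spray (100 = total damage).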

[2] = system: corn (Zea mays); assay: Test G Pre-Emergence Protocol; conditions: Zea mays, pre-emergence, 312 h, evaluated after 13 days; for plant injury at 15.625 g/ha: 15.625 g ai/ha; for plant injury at 15.625 g/ha / plant injury at 250 g/ha: read-out: Corn damage rating (100=total damage to plant; 0=no damage to plant); for plant injury at 62.5 g/ha: 62.5 g ai/ha, 100=total damage to plant, 0=no damage to plant, read-out: Corn damage rating; for plant injury at 250 g/ha: 250 g ai/ha
How it was run: as §1

[3] = system: giant foxtail (Setaria faberi); assay: Test G Pre-Emergence Protocol; conditions: Setaria faberi, pre-emergence, 312 h, evaluated after 13 days; for pest or weed control at 15.625 g/ha: 15.625 g ai/ha; for pest or weed control at 15.625 g/ha / pest or weed control at 250 g/ha: read-out: Foxtail, Giant damage rating (100=total damage to plant; 0=no damage to plant); for pest or weed control at 62.5 g/ha: 62.5 g ai/ha, 100=total damage to plant, 0=no damage to plant, read-out: Foxtail, Giant damage rating; for pest or weed control at 250 g/ha: 250 g ai/ha
How it was run: as §1

[4] = system: ivy-leaved morning glory (Ipomoea hederacea); assay: Test G Pre-Emergence Protocol; conditions: Ipomoea, pre-emergence, 312 h, evaluated after 13 days; for pest or weed control at 15.625 g/ha: 15.625 g ai/ha; for pest or weed control at 15.625 g/ha / pest or weed control at 250 g/ha: read-out: Morningglory, Ivy-leaved damage rating (100=total damage to plant; 0=no damage to plant); for pest or weed control at 62.5 g/ha: 62.5 g ai/ha, 100=total damage to plant, 0=no damage to plant, read-out: Morningglory, Ivy-leaved damage rating; for pest or weed control at 250 g/ha: 250 g ai/ha
How it was run: as §1

[5] = system: redroot pigweed (Amaranthus retroflexus); assay: Test G Pre-Emergence Protocol; conditions: Amaranthus retroflexus, pre-emergence, 312 h, evaluated after 13 days; for pest or weed control at 15.625 g/ha: 15.625 g ai/ha; for pest or weed control at 15.625 g/ha / pest or weed control at 250 g/ha: read-out: Pigweed, Redroot damage rating (100=total damage to plant; 0=no damage to plant); for pest or weed control at 62.5 g/ha: 62.5 g ai/ha, 100=total damage to plant, 0=no damage to plant, read-out: Pigweed, Redroot damage rating; for pest or weed control at 250 g/ha: 250 g ai/ha
How it was run: as §1

[6] = system: velvetleaf (Abutilon theophrasti); assay: Test G Pre-Emergence Protocol; conditions: Abutilon theophrasti, pre-emergence, 312 h, evaluated after 13 days; for pest or weed control at 15.625 g/ha: 15.625 g ai/ha; for pest or weed control at 15.625 g/ha / pest or weed control at 250 g/ha: read-out: Velvetleaf damage rating (100=total damage to plant; 0=no damage to plant); for pest or weed control at 62.5 g/ha: 62.5 g ai/ha, 100=total damage to plant, 0=no damage to plant, read-out: Velvetleaf damage rating; for pest or weed control at 250 g/ha: 250 g ai/ha
How it was run: as §1

[7] = system: barnyardgrass (Echinochloa crus-galli); assay: Test G Post-Emergence Protocol; conditions: Echinochloa crus-galli, post-emergence, 312 h, read-out: Barnyardgrass damage rating; for pest or weed control at 15.625 g/ha: 15.625 g ai/ha, evaluated after 13 days (100=total damage to plant; 0=no damage to plant); for pest or weed control at 62.5 g/ha: 62.5 g ai/ha; for pest or weed control at 62.5 g/ha / pest or weed control at 250 g/ha: evaluated after 13 days, 100=total damage to plant, 0=no damage to plant; for pest or weed control at 250 g/ha: 250 g ai/ha
How it was run: (§2)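 Post-emergence herbicidal damage, scored visually 0–100 at 13 days. Application at 15.625, 62.5 or 250 g/ha onto 8-day-old plants grown under glasshouse control.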

[8] = system: corn (Zea mays); assay: Test G Post-Emergence Protocol; conditions: Zea mays, post-emergence, 312 h, read-out: Corn damage rating; for plant injury at 15.625 g/ha: 15.625 g ai/ha, evaluated after 13 days (100=total damage to plant; 0=no damage to plant); for plant injury at 62.5 g/ha: 62.5 g ai/ha; for plant injury at 62.5 g/ha / plant injury at 250 g/ha: evaluated after 13 days, 100=total damage to plant, 0=no damage to plant; for plant injury at 250 g/ha: 250 g ai/ha
How it was run: as §2

[9] = system: giant foxtail (Setaria faberi); assay: Test G Post-Emergence Protocol; conditions: Setaria faberi, post-emergence, 312 h, read-out: Foxtail, Giant damage rating; for pest or weed control at 15.625 g/ha: 15.625 g ai/ha, evaluated after 13 days (100=total damage to plant; 0=no damage to plant); for pest or weed control at 62.5 g/ha: 62.5 g ai/ha; for pest or weed control at 62.5 g/ha / pest or weed control at 250 g/ha: evaluated after 13 days, 100=total damage to plant, 0=no damage to plant; for pest or weed control at 250 g/ha: 250 g ai/ha
How it was run: as §2

[10] = system: ivy-leaved morning glory (Ipomoea hederacea); assay: Test G Post-Emergence Protocol; conditions: Ipomoea, post-emergence, 312 h, read-out: Morningglory, Ivy-leaved damage rating; for pest or weed control at 15.625 g/ha: 15.625 g ai/ha, evaluated after 13 days (100=total damage to plant; 0=no damage to plant); for pest or weed control at 62.5 g/ha: 62.5 g ai/ha; for pest or weed control at 62.5 g/ha / pest or weed control at 250 g/ha: evaluated after 13 days, 100=total damage to plant, 0=no damage to plant; for pest or weed control at 250 g/ha: 250 g ai/ha
How it was run: as §2

[11] = system: redroot pigweed (Amaranthus retroflexus); assay: Test G Post-Emergence Protocol; conditions: Amaranthus retroflexus, post-emergence, 312 h, read-out: Pigweed, Redroot damage rating; for pest or weed control at 15.625 g/ha: 15.625 g ai/ha, evaluated after 13 days (100=total damage to plant; 0=no damage to plant); for pest or weed control at 62.5 g/ha: 62.5 g ai/ha; for pest or weed control at 62.5 g/ha / pest or weed control at 250 g/ha: evaluated after 13 days, 100=total damage to plant, 0=no damage to plant; for pest or weed control at 250 g/ha: 250 g ai/ha
How it was run: as §2

[12] = system: velvetleaf (Abutilon theophrasti); assay: Test G Post-Emergence Protocol; conditions: Abutilon theophrasti, post-emergence, 312 h, read-out: Velvetleaf damage rating; for pest or weed control at 15.625 g/ha: 15.625 g ai/ha, evaluated after 13 days (100=total damage to plant; 0=no damage to plant); for pest or weed control at 62.5 g/ha: 62.5 g ai/ha; for pest or weed control at 62.5 g/ha / pest or weed control at 250 g/ha: evaluated after 13 days, 100=total damage to plant, 0=no damage to plant; for pest or weed control at 250 g/ha: 250 g ai/ha
How it was run: as §2

SMILES	pest or weed control at 15.625 g/ha [1] [%]	pest or weed control at 62.5 g/ha [1] [%]	pest or weed control at 250 g/ha [1] [%]	plant injury at 15.625 g/ha [2] [%]	plant injury at 62.5 g/ha [2] [%]	plant injury at 250 g/ha [2] [%]	pest or weed control at 15.625 g/ha [3] [%]	pest or weed control at 62.5 g/ha [3] [%]	pest or weed control at 250 g/ha [3] [%]	pest or weed control at 15.625 g/ha [4] [%]	pest or weed control at 62.5 g/ha [4] [%]	pest or weed control at 250 g/ha [4] [%]	pest or weed control at 15.625 g/ha [5] [%]	pest or weed control at 62.5 g/ha [5] [%]	pest or weed control at 250 g/ha [5] [%]	pest or weed control at 15.625 g/ha [6] [%]	pest or weed control at 62.5 g/ha [6] [%]	pest or weed control at 250 g/ha [6] [%]	pest or weed control at 15.625 g/ha [7] [%]	pest or weed control at 62.5 g/ha [7] [%]	further results
CN1C[C@H](c2cccc(C(F)(F)F)c2)[C@@H](C(=O)Nc2cnccc2[N+](=O)[O-])C1=O (racemic) [Compound 1731]	0	0	0	0	0	0	0	0	20	0	0	0	0	0	0	0	0	0	0	0	pest or weed control at 250 g/ha [7]: 0%; plant injury at 15.625 g/ha [8]: 0%; plant injury at 62.5 g/ha [8]: 0%; plant injury at 250 g/ha [8]: 0%; pest or weed control at 15.625 g/ha [9]: 0%; pest or weed control at 62.5 g/ha [9]: 0%; pest or weed control at 250 g/ha [9]: 0%; pest or weed control at 15.625 g/ha [10]: 0%; pest or weed control at 62.5 g/ha [10]: 0%; pest or weed control at 250 g/ha [10]: 0%; pest or weed control at 15.625 g/ha [11]: 0%; pest or weed control at 62.5 g/ha [11]: 0%; pest or weed control at 250 g/ha [11]: 10%; pest or weed control at 15.625 g/ha [12]: 0%; pest or weed control at 62.5 g/ha [12]: 0%; pest or weed control at 250 g/ha [12]: 0%
Cc1cc(F)ncc1NC(=O)[C@H]1C(=O)N(C)C[C@@H]1c1ccc(C(F)(F)F)cc1 (racemic) [Compound 1733]	0	20	70	0	20	80	10	80	90	0	20	80	0	70	80	0	50	80	0	0	pest or weed control at 250 g/ha [7]: 80%; plant injury at 15.625 g/ha [8]: 0%; plant injury at 62.5 g/ha [8]: 50%; plant injury at 250 g/ha [8]: 70%; pest or weed control at 15.625 g/ha [9]: 10%; pest or weed control at 62.5 g/ha [9]: 80%; pest or weed control at 250 g/ha [9]: 80%; pest or weed control at 15.625 g/ha [10]: 20%; pest or weed control at 62.5 g/ha [10]: 60%; pest or weed control at 250 g/ha [10]: 70%; pest or weed control at 15.625 g/ha [11]: 10%; pest or weed control at 62.5 g/ha [11]: 20%; pest or weed control at 250 g/ha [11]: 80%; pest or weed control at 15.625 g/ha [12]: 0%; pest or weed control at 62.5 g/ha [12]: 40%; pest or weed control at 250 g/ha [12]: 80%
CN1C[C@H](c2cccc(C(F)(F)F)c2)[C@@H](C(=O)Nc2cc(C#N)ccn2)C1=O (racemic) [Compound 1735]	0	0	0	0	0	0	0	0	0	0	0	0	0	0	0	0	0	0	0	0	pest or weed control at 250 g/ha [7]: 0%; plant injury at 15.625 g/ha [8]: 0%; plant injury at 62.5 g/ha [8]: 0%; plant injury at 250 g/ha [8]: 0%; pest or weed control at 15.625 g/ha [9]: 0%; pest or weed control at 62.5 g/ha [9]: 0%; pest or weed control at 250 g/ha [9]: 0%; pest or weed control at 15.625 g/ha [10]: 0%; pest or weed control at 62.5 g/ha [10]: 0%; pest or weed control at 250 g/ha [10]: 0%; pest or weed control at 15.625 g/ha [11]: 0%; pest or weed control at 62.5 g/ha [11]: 0%; pest or weed control at 250 g/ha [11]: 0%; pest or weed control at 15.625 g/ha [12]: 0%; pest or weed control at 62.5 g/ha [12]: 0%; pest or weed control at 250 g/ha [12]: 0%
